# Results: patent US12427210B2, “Compounds comprising a fibroblast activation protein ligand and use thereof” (priority 2019, dated 2025)
# Numbered stars: 1 amine (or outer) side, 2 acyl side, 3 side chain; on linkers, the order of the positions; unused ones are H or OH. Bridge positions count the residues as written; N and C are the ends. Peptide text beside a SMILES is read from it. * marks the point of attachment. X1 = O=C(O)CN1CCN(CC(=O)O)CCN(CC(=O)N2CCN(Cc3cc(C[*:1])cc(C[*:2])c3)CC2)CCN(CC(=O)O)CC1; Hexanoyl = CCCCCC(=O)*
# Tests used:
# [1] = biological target: T1, Ubiquitin carboxyl-terminal hydrolase 2 (Homo sapiens, UniProt O75604); experiment: biochemical; conditions: read-out: Percentage inhibition (%)
# T1 sequence (O75604 1-605): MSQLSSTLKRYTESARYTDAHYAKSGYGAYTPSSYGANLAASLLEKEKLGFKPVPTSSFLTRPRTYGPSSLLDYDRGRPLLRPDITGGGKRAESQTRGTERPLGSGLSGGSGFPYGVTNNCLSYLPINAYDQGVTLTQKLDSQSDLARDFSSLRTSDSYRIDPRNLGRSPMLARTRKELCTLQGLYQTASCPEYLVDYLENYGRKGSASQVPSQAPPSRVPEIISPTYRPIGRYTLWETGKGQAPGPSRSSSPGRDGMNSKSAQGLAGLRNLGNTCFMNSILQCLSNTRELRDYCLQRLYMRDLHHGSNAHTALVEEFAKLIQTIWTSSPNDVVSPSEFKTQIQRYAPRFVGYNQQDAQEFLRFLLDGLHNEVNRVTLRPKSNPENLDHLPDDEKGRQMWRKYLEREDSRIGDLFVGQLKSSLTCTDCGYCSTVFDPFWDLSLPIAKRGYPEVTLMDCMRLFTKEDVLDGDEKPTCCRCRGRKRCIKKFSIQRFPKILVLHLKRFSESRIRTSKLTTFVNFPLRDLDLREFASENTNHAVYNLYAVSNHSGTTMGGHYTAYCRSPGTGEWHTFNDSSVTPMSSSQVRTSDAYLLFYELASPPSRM
# PDE3A (h) = PDE3A (h) (Homo sapiens, UniProt Q14432); experiment: biochemical; conditions: read-out: % Inhibition of Specific Binding
# Chain of PDE3A (h) (Q14432 whole entry): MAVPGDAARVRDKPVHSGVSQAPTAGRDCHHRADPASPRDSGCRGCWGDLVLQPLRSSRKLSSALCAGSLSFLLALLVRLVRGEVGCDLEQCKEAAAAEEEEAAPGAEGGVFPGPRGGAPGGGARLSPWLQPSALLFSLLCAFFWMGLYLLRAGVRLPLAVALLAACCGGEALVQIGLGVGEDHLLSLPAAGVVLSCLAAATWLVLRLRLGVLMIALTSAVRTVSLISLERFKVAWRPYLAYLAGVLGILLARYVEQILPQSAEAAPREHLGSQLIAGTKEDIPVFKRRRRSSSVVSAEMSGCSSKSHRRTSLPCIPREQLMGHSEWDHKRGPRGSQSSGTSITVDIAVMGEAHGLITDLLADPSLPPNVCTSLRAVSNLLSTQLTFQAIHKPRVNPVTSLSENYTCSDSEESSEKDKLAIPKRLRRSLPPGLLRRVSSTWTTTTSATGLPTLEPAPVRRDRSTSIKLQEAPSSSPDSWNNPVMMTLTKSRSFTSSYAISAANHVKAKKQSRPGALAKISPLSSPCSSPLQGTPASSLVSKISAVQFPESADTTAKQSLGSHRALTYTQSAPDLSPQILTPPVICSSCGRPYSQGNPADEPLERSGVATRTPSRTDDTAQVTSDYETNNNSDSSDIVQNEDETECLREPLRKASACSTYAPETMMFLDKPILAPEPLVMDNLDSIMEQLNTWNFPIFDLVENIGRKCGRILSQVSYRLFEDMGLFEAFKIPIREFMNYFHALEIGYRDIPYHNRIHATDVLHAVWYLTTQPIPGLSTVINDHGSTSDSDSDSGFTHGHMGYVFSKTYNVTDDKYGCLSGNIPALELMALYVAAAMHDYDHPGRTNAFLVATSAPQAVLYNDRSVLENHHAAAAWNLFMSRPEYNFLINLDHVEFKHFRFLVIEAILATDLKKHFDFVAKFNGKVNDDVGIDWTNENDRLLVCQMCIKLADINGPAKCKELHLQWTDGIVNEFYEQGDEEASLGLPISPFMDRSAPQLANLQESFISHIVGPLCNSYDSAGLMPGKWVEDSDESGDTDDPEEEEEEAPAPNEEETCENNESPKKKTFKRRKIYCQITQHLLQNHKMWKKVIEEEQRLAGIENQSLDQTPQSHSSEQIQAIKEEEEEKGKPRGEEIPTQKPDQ
# [2] = system: Ca2+ channel (L, dihydropyridine site); conditions: 10 μM
# Caspase-7 = biological target: T2, Caspase-7 (Homo sapiens, UniProt P55210); experiment: biochemical; conditions: read-out: Percentage inhibition (%)
# T2 sequence (P55210 24-198 limits assumed): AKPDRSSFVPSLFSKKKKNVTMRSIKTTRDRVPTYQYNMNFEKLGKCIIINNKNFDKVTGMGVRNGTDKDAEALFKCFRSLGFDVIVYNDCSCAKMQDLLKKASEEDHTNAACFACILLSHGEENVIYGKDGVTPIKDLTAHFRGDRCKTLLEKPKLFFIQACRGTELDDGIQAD
# T2 sequence (P55210 207-303 limits assumed): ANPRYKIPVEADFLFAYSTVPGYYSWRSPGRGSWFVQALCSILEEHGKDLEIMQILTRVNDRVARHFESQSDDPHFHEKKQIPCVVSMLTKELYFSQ
# delta (DOP) (h) = delta (DOP) (h) (Homo sapiens, UniProt P41143); experiment: biochemical; conditions: read-out: % Inhibition of Specific Binding
# Chain of delta (DOP) (h) (P41143 whole entry): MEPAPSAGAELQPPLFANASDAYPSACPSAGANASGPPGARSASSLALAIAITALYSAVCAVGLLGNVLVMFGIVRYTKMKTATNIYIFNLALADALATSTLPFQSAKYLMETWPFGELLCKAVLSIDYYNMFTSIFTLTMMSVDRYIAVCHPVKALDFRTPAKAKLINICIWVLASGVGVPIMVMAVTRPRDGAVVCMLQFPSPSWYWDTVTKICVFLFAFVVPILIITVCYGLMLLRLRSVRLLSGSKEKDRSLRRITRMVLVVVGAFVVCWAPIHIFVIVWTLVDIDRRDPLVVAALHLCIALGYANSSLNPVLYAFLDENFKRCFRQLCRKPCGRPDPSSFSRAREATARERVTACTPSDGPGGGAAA
# Na+ channel (site 2) = experiment: SafetyScreen44 Na+ channel (site 2) (antagonist radioligand); type: binding; conditions: 10 μM
# Cathepsin V = Cathepsin V (Homo sapiens, UniProt O60911); experiment: biochemical; conditions: read-out: Percentage inhibition (%)
# Chain of Cathepsin V (O60911 114-334, species assumed): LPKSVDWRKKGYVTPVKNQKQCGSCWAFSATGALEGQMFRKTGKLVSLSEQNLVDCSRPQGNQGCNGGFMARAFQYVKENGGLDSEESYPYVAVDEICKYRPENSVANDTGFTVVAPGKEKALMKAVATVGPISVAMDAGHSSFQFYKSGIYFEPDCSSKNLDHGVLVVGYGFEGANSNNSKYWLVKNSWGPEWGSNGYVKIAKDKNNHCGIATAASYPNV
# Cathepsin S = Cathepsin S (Homo sapiens, UniProt P25774); experiment: biochemical; conditions: read-out: Percentage inhibition (%)
# Chain of Cathepsin S (P25774 115-331): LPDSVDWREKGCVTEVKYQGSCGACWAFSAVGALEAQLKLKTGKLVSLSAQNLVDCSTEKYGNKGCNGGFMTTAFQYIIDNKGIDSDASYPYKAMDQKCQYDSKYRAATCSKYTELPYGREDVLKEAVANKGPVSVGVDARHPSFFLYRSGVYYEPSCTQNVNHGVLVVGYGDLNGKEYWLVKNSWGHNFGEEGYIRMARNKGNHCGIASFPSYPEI
# A20 = biological target: T3, A20 (Homo sapiens, UniProt P21580); experiment: biochemical; conditions: read-out: Percentage inhibition (%)
# T3 sequence (P21580 1-790): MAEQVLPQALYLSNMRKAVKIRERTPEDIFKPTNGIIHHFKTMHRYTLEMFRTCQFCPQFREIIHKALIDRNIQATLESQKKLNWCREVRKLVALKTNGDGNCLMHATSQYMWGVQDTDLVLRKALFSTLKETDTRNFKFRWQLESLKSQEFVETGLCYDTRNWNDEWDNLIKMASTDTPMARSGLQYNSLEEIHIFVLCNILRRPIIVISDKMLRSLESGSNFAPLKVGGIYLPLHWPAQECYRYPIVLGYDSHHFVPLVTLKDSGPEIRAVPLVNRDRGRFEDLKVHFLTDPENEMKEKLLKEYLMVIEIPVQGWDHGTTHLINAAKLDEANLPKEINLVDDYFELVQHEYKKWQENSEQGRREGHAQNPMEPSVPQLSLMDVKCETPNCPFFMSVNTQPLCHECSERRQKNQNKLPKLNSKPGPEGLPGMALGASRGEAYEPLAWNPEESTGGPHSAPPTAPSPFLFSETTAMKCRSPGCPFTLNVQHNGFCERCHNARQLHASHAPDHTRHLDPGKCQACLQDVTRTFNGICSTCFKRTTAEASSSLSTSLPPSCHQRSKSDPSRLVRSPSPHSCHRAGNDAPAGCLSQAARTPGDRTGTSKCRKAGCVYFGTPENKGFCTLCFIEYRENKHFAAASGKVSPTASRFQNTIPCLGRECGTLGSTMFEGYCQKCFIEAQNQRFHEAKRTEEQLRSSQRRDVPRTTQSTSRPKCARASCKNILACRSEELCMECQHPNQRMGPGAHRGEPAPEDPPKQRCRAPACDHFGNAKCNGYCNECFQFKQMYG
# 5-HT2A (h) = 5-HT2A (h) (Homo sapiens, UniProt P28223); experiment: biochemical; conditions: read-out: % Inhibition of Specific Binding
# Chain of 5-HT2A (h) (P28223 whole entry): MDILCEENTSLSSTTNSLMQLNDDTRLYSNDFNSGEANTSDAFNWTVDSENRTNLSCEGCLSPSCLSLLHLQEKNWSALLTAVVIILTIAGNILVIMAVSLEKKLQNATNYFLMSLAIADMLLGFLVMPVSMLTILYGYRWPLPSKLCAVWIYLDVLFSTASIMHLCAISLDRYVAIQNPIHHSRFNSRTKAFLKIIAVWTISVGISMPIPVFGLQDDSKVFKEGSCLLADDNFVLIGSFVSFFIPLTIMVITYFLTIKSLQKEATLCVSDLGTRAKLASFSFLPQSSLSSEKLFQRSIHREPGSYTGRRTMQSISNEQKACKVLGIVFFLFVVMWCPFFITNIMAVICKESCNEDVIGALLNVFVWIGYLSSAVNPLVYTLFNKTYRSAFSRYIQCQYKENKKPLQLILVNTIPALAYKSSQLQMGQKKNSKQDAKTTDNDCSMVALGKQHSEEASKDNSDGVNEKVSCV
# GR (h) = GR (h) (Homo sapiens, UniProt P04150); experiment: biochemical; conditions: read-out: % Inhibition of Specific Binding
# Chain of GR (h) (P04150 whole entry): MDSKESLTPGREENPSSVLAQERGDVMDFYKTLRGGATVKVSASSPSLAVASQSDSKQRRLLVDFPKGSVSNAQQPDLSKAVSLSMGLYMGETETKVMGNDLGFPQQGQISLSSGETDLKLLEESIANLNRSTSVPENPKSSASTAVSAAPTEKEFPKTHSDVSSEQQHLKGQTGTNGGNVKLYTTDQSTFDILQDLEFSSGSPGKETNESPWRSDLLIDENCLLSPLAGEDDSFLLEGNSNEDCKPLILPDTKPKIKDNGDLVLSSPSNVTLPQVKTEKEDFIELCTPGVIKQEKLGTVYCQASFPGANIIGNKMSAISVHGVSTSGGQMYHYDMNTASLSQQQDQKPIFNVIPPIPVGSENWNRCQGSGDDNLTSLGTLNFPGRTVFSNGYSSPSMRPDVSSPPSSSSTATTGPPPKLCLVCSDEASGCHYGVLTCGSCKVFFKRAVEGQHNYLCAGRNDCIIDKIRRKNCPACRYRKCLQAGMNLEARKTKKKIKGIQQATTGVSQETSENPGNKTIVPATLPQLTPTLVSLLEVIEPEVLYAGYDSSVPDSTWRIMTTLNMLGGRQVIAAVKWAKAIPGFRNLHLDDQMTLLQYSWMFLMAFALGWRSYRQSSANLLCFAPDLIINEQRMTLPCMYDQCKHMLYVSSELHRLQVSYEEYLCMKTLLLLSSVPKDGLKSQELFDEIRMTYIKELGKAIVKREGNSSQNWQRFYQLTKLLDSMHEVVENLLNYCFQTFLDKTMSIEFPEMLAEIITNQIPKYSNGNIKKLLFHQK
# [3] = biological target: T4, Ubiquitin carboxy-terminal hydrolase L3 (Homo sapiens, UniProt P15374); experiment: biochemical; conditions: read-out: Percentage inhibition (%)
# T4 sequence (P15374 1-230): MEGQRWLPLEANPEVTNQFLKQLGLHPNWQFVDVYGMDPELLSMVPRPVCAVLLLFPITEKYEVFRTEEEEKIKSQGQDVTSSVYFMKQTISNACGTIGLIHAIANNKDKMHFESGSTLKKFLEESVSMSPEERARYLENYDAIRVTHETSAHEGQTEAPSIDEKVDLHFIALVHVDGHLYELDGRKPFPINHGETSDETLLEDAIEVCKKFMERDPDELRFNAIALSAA
Compound,inhibition at 1 µM [1] [%],inhibition at 10 µM [1] [%],inhibition at 10 µM (PDE3A (h)) [%],% Inhibition of Specific Binding [2] [%],inhibition at 1 µM (Caspase-7) [%],inhibition at 10 µM (Caspase-7) [%],inhibition at 10 µM (delta (DOP) (h)) [%],% Inhibition of Specific Binding (Na+ channel (site 2)) [%],inhibition at 1 µM (Cathepsin V) [%],inhibition at 10 µM (Cathepsin V) [%],inhibition at 1 µM (Cathepsin S) [%],inhibition at 10 µM (Cathepsin S) [%],inhibition at 1 µM (A20) [%],inhibition at 10 µM (A20) [%],inhibition at 10 µM (5-HT2A (h)) [%],inhibition at 10 µM (GR (h)) [%],inhibition at 1 µM [3] [%],inhibition at 10 µM [3] [%]
"CCCCCC(=O)N[C@H]1CSCc2cc(CSCCNC(=O)CN3CCN(CC(=O)O)CCN(CC(=O)O)CCN(CC(=O)O)CC3)cc(c2)CSC[C@@H](C(=O)O)NC(=O)[C@H](Cc2ccccc2)NC(=O)[C@H](CCC(N)=O)NC(=O)[C@H]([C@@H](C)O)NC(=O)[C@@H]2CCCN2C(=O)[C@@H]2CCCN2C1=O [Compound 3BP-3554, Hex-[Cys(tMeBn(DOTA-AET))-Pro-Pro-Thr-Gln-Phe-Cys]-OH]",0,-1,-37,54,-1,-7,1,14,-1,-1,-10,-23,1,0,4,0,0,0
"CCCCCC(=O)N[C@H]1CSCc2cc(cc(CN3CCN(C(=O)CN4CCN(CC(=O)O)CCN(CC(=O)O)CCN(CC(=O)O)CC4)CC3)c2)CSC[C@@H](C(=O)N[C@@H](CC(=O)O)C(N)=O)NC(=O)[C@H](Cc2ccccc2)NC(=O)[C@H](CCC(N)=O)NC(=O)[C@H]([C@@H](C)O)NC(=O)[C@@H]2CCCN2C(=O)[C@@H]2CCCN2C1=O [Compound 3BP-3407, Hex-[Cys(tMeBn(DOTA-PP))-Pro-Pro-Thr-Gln-Phe-Cys]-Asp-NH2] (Hexanoyl-CPPTQFCD-NH2; linker 1-7 via X1)",3,7,-3,42,-3,-3,0,−7,1,-18,3,18,2,-4,-2,-2,-1,14
